Assay results as given in US20220168310A1, “INHIBITION OF ADENOVIRUS WITH FILOCICLOVIR” (Microbiotix, Inc., priority 2019, published 2022).

Experiments:
[1] = system: adenovirus 3 (AdV3); assay: Efficacy against adenovirus 3 (data not shown)
[2] = system: AdV5; assay: Immunofluorescence assay (DBP and hexon staining), AdV5-infected A549 cells; type: cell-based, human adenovirus; settings: 27 hours post-infection
Method: Human A549 cells on glass coverslips in 6-well plates were infected at an MOI of 5 PFU/cell with either AdV5 or AdV6 or were mock-infected. After 1 hour, filociclovir was added to a final concentration of 0, 4, 10, or 40 μM. At 27 hours post-infection, the A549 cells were fixed in paraformaldehyde (3.7% in PBS) and permeabilized with methanol. Cells were stained for the Adenovirus DNA-binding protein and adenovirus hexon. DBP staining will be […] and uniform during early AdV infection (prior to AdV DNA replication). DBP associates with replication centers as the infection progresses. The replication centers are initially small “dots” (each dot results from one incoming AdV genome). The replication centers will expand and “multiply” as DNA replication takes place. The nuclei become enlarged and misshapen as infection progresses. AdV hexon, the most abundant component of the AdV viral capsid, is not expressed until after DNA replication is taking place and is therefore considered to be a “late” AdV protein.

[3] = system: Human AdV6; assay: High dose filociclovir against intravenously administered AdV6 in immunosuppressed hamsters (Example 5); settings: for mortality: p=0.0124 vs AdV6+Vehicle; for virus burden in the liver: TCID50
Method: Four dose levels were tested: 10, 30, 60, and 100 mg/kg p.o. q.d. The highest dose was determined based on rat toxicology data.
All hamsters were immunosuppressed using cyclophosphamide (CP). CP was administered intraperitoneally at a dose of 140 mg/kg, and then twice weekly at a dose of 100 mg/kg.
Filociclovir, in powdered form, was suspended in 0.4% carboxymethyl cellulose (Sigma C5678) at 1, 3, 6, and 10 mg/ml and sonicated to visual homogeneity and aliquots stored at 4° C. Aliquots were allowed to equilibrate to room temperature before dosing. Hamsters weighing approximately 100 g were dosed with a 1 ml volume of the appropriate suspension for the 10, 30, 60, and 100 mg/kg dose levels. References to “vehicle” refers to 0.4% carboxymethyl cellulose
The hamsters were divided into 8 groups, 15 hamsters/group, (with the exception of Group 2, which had only 5 hamsters; see Table 3), immunosuppressed, and then injected i.v. with vehicle (Groups 1-2) or 2×10^10 PFU/kg of AdV6 (Groups […]). Groups 1 and 3 received drug vehicle (p.o. q.d.), Group 4 received 10 mg/kg filociclovir (p.o. q.d.), Group 5 received 30 mg/kg filociclovir (p.o. q.d.), Group 6 received 60 mg/kg filociclovir (p.o. q.d.), Groups 2 and 7 received 100 mg/kg filociclovir (p.o. q.d.), and Group 8 received cidofovir (20 mg/kg, 3 times weekly). For all groups, drug administration started 1 day before challenge, and continued according to the schedule above for the duration of the study.
The body weights and any signs of morbidity of the animals were recorded daily. At 5 days post challenge, 5 hamsters (designated at the start of the experiment) from each group (with the exception of Group 2) were sacrificed, and gross pathological observation was performed. Serum and liver samples were collected and the virus burden in liver was determined by a TCID50 assay, and the serum was analyzed for transaminase levels. The remaining 10 hamsters were sacrificed at 14 days post challenge. Hamsters that became visually moribund before Day 14 were sacrificed as needed. In addition to the hamsters observed to be moribund, all hamsters that lost more than 20% of their original body weight were also sacrificed. For the hamsters sacrificed at the conclusion of the experiment and those sacrificed as moribund, serum and liver tissues were collected and banked for possible determination of serum transaminase levels and virus burden in the liver. Liver tissue was preserved in formalin for possible histopathological examination.

[4] = system: adenovirus 8 (AdV8); assay: CPE reduction assay, adenovirus 8; type: cell-based, human adenovirus; settings: unidentified adenovirus, unit not given in Table 2 (Table 1 in μM)
Method: Similar experiments were carried out with filociclovir against adenovirus 6, adenovirus 7, and adenovirus 8.

[5] = system: adenovirus 4 (AdV4); assay: Efficacy against adenovirus 4 (data not shown)

## Nc1nc2c(ncn2/C=C2/CC2(CO)CO)c(=O)[nH]1 [FCV, 2-amino-9-{(Z)-[2,2-bis(hydroxymethyl)cyclopropylidene]methyl}-3,9-dihydro-6H-purin-6-one]
[1]
  treat or prevent infection: effective
[2]; AdV5, 4 μM
  hexon-positive cells: Some hexon-positive cells
[2]; AdV5, 10 μM
  hexon-positive cells: extremely few hexon-positive cells
[2]; AdV5, 40 μM
  hexon-positive cells: No hexon-positive cells
[3]; 10 mg/kg p.o. q.d.
  body weight loss: reversed
  mortality: prevented mortality
[3]; 10 mg/kg, 5 days post challenge
  virus burden in the liver: one animal in the AdV6+10 mg/kg filociclovir group with a very low liver virus burden
[3]; 30 mg/kg p.o. q.d.
  body weight loss: reversed
  mortality: prevented mortality
[3]; 30 mg/kg, 5 days post challenge
  virus burden in the liver: nondetectable level
[3]; 60 mg/kg p.o. q.d.
  toxicity for AdV6-infected hamsters: toxic
[3]; 100 mg/kg p.o. q.d.
  toxicity for AdV6-infected hamsters: toxic
[3]; 5 days post challenge, filociclovir p.o. q.d. groups, CDV 20 mg/kg 3 times weekly
  animals with elevated serum transaminase levels (ALT): none
[3]; AdV6+60 mg/kg
  kidney pathology at day 5 sacrifice: extensive kidney pathology
[3]; AdV6+100 mg/kg
  kidney pathology at day 5 sacrifice: extensive kidney pathology
[4]
  EC50: 2.45 µM
[5]
  treat or prevent infection: effective
